From patent US4772606A, “Purine derivatives” (Warner-Lambert Company, priority 1985, dated 1988)
Structures can show the parent of a compound that is named as a salt. Where two headings read alike, the source gives them in different places.

Columns and labels:
[1] = target: T1, purine nucleoside phosphorylase (PNP-4) (Homo sapiens, UniProt P00491); assay: purine nucleoside phosphorylase (PNP-4) enzyme assay, radiochemical, formation of [14C]-hypoxanthine from [14C]inosine; type: biochemical; details: erythrocyte enzyme; [14C]inosine substrate
T1 construct: using hyman erythrocyte as the enzyme source; from tissue; host or cells: human erythrocytes
T1 sequence (P00491 1-289): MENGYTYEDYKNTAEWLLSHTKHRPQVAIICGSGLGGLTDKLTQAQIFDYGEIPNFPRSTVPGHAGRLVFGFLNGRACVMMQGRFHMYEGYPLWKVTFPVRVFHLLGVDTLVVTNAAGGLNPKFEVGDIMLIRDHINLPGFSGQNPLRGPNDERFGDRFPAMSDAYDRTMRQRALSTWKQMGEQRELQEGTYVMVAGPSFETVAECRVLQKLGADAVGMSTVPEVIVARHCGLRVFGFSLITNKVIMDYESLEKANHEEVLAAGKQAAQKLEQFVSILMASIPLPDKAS

[2] = test system: T-Cell; assay: HTBA-1 T-cell cytotoxicity in the presence of 2'-deoxyguanosine; type: cell-based; details: read-out: HTBA-1 T-Cell +dGuo (10 μM) IC50

Compound	IC50 [1]	IC50 ([2]; +dGuo (10 μM))	IC50 [2]
Nc1nc2c(nc(N)n2Cc2csc3ccccc23)c(=O)[nH]1 [Example 9e, 8-Amino-9-[(benzo[b]thien-3-yl)methyl]guanine]	140 µM		
Nc1nc2c(nc(N)n2Cc2ccco2)c(=O)[nH]1 [Example 9b, 8-Amino-9-(2-furanylmethyl)guanine monohydrochloride]	0.25 µM		2.57 µM
Nc1nc2c(nc(N)n2Cc2cc3ccccc3s2)c(=O)[nH]1 [Example 16Ag]	8.45 µM	> 12.5 µM	
Nc1nc2c(nc(N)n2Cc2cccs2)c(=O)[nH]1 [2 or 9a]	0.17 µM		0.83 µM
Nc1nc2c(ncn2Cc2cccnc2)c(=O)[nH]1 [Example 1, 9-[(3-Pyridinyl)methyl]guanine]	21.9 µM	54.1 µM	

Second part, led by results:

IC50 [1]	Compound	IC50 ([2]; +dGuo (10 μM))	IC50 [2]
0.93 µM	CCc1ccc(Cn2cnc3c(=O)[nH]c(N)nc32)s1 [Example 3, 9-[(5-Ethyl-2-thienyl)methyl]guanine]	4.15 µM	
4.6 µM	Nc1nc2c(nc(N)n2Cc2ccccn2)c(=O)[nH]1 [Example 16Af]		
4.05 µM	Cc1ccsc1Cn1c(N)nc2c(=O)[nH]c(N)nc21 [Example 9d, 8-Amino-9-[(3-methyl-2-thienyl)methyl]guanine]	8.6 µM	
1.72 µM	Cc1sccc1Cn1c(N)nc2c(=O)[nH]c(N)nc21 [Example 16Ad]	18.2 µM	
0.085 µM	Nc1nc2c(nc(N)n2Cc2ccsc2)c(=O)[nH]1 [Example 9c, 8-Amino-9-[(3-thienyl)methyl]guanine, monohydrochloride, monohydrate]	0.49 µM	
0.63 µM	Cc1cc(Cn2c(N)nc3c(=O)[nH]c(N)nc32)cs1 [Example 16Ak]	2.8 µM	
6.25 µM	Nc1nc2c(nc(N)n2CCc2cccs2)c(=O)[nH]1 [Example 16Ac]	17.6 µM	
